# From US10253052B2, “HBED-bisphosphonates, radiometal conjugates and their use as theranostic agents” (Five Eleven Pharma Inc., priority 2015, dated 2019)
# Several values for one entry are separate records, joined by “and”; a condition that tells them apart may be missing. Equal entries are not always repeated.
# Columns and labels:
# [1] = In vivo biodistribution in mice; set-up: species or system normal CD-1 male mice; details: iv
# How it was run: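 Normal male CD-1 mice (25-30 g) received 20-30 μCi of ^68Ga-labelled tracer or [^18F]NaF intravenously and were sacrificed at 2, 30, 60 and 120 min. Harvested organs, with tibia and femur as bone, were weighed and gamma-counted; uptake is expressed as % ID/g wet tissue.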
# [2] = In vitro binding to hydroxyapatite; details: 20 mg hydroxyapatite in saline, 10 min at room temperature
# How it was run: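 Hydroxyapatite was pre-incubated 24 h in isotonic saline, then ^68Ga-labelled compound (1 μCi) was added and incubated 10 min at room temperature. After centrifugation and two saline washes, gamma counting of supernatants and solid gave percent ^68Ga bound to hydroxyapatite.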
# [3] = Micro-PET imaging in normal mice; format: in vivo, normal CD-1 male mice; details: 15 min scan at 60 min post-injection
# Protocol: [^68Ga]1a, [^68Ga]BPAMD and [^18F]NaF were tested in normal CD-1 male mice. [^68Ga]1g was tested in PSMA expressing LNCaP tumor bearing nude mice. Mice received 300-500 uCi radiotracer through a tail vein injection. PET imaging was performed under isoflurane anaesthesia (2% isoflurane, 1.5 L/min oxygen). The microPET imaging was performed with a small animal PET (Mosaic by Phillips, USA). During PET measurements, the animals were placed in the prone position. At 60 min post injection of the radiotracer, data acquisition was performed for 15 min.
compound,measurement,setting,value
"[18F-].[Na+] [[^18F]NaF, reference compound]",bone to blood ratio,[1]; 2 min,1.9
same,bone to muscle ratio,[1]; 2 min,7.2
same,Biodistribution: Blood,[1]; 2 min post injection,5.56 ± 0.37 % dose/g
same,Biodistribution: Bone,[1]; 2 min post injection,10.8 ± 0.51 % dose/g
same,Biodistribution: Brain,[1]; 2 min post injection,0.22 ± 0.07 % dose/g
same,Biodistribution: Heart,[1]; 2 min post injection,2.80 ± 0.24 % dose/g
same,Biodistribution: Kidney,[1]; 2 min post injection,10.4 ± 1.22 % dose/g
same,Biodistribution: Liver,[1]; 2 min post injection,2.56 ± 0.24 % dose/g
same,Biodistribution: Lung,[1]; 2 min post injection,3.37 ± 0.17 % dose/g
same,Biodistribution: Muscle,[1]; 2 min post injection,1.50 ± 0.06 % dose/g
same,Biodistribution: Pancreas,[1]; 2 min post injection,1.76 ± 0.07 % dose/g
same,Biodistribution: Skin,[1]; 2 min post injection,2.35 ± 0.45 % dose/g
same,Biodistribution: Spleen,[1]; 2 min post injection,2.33 ± 0.14 % dose/g
same,bone to blood ratio,[1]; 30 min,38
same,bone to muscle ratio,[1]; 30 min,73
same,Biodistribution: Blood,[1]; 30 min (0.5 hr) post injection,0.64 ± 0.08 % dose/g
same,Biodistribution: Bone,[1]; 30 min (0.5 hr) post injection,24.2 ± 2.71 % dose/g
same,Biodistribution: Brain,[1]; 30 min (0.5 hr) post injection,0.10 ± 0.02 % dose/g
same,Biodistribution: Heart,[1]; 30 min (0.5 hr) post injection,0.96 ± 0.23 % dose/g
same,Biodistribution: Kidney,[1]; 30 min (0.5 hr) post injection,1.70 ± 0.62 % dose/g
same,Biodistribution: Liver,[1]; 30 min (0.5 hr) post injection,0.65 ± 0.17 % dose/g
same,Biodistribution: Lung,[1]; 30 min (0.5 hr) post injection,0.55 ± 0.11 % dose/g
same,Biodistribution: Muscle,[1]; 30 min (0.5 hr) post injection,0.33 ± 0.11 % dose/g
same,Biodistribution: Pancreas,[1]; 30 min (0.5 hr) post injection,0.42 ± 0.27 % dose/g
same,Biodistribution: Skin,[1]; 30 min (0.5 hr) post injection,0.51 ± 0.11 % dose/g
same,Biodistribution: Spleen,[1]; 30 min (0.5 hr) post injection,0.93 ± 0.56 % dose/g
same,bone to blood ratio,[1]; 60 min,161
same,bone to muscle ratio,[1]; 60 min,291 and 281
same,Biodistribution: Blood,[1]; 60 min (1 hr) post injection,0.15 ± 0.01 % dose/g
same,Biodistribution: Bone,[1]; 60 min (1 hr) post injection,24.6±3.2 % dose/g and 24.6 ± 3.18 % dose/g
same,Biodistribution: Brain,[1]; 60 min (1 hr) post injection,0.06 ± 0.01 % dose/g
same,Biodistribution: Heart,[1]; 60 min (1 hr) post injection,0.18 ± 0.02 % dose/g
same,Biodistribution: Kidney,[1]; 60 min (1 hr) post injection,0.68 ± 0.36 % dose/g
same,Biodistribution: Liver,[1]; 60 min (1 hr) post injection,0.13 ± 0.01 % dose/g
same,Biodistribution: Lung,[1]; 60 min (1 hr) post injection,0.14 ± 0.01 % dose/g
same,Biodistribution: Muscle,[1]; 60 min (1 hr) post injection,0.09 ± 0.02 % dose/g
same,Biodistribution: Pancreas,[1]; 60 min (1 hr) post injection,0.07 ± 0.00 % dose/g
same,Biodistribution: Skin,[1]; 60 min (1 hr) post injection,0.11 ± 0.02 % dose/g
same,Biodistribution: Spleen,[1]; 60 min (1 hr) post injection,0.12 ± 0.02 % dose/g
same,bone to blood ratio,[1]; 120 min,760
same,bone to muscle ratio,[1]; 120 min,593
same,Biodistribution: Blood,[1]; 120 min post injection,0.03 ± 0.00 % dose/g
same,Biodistribution: Bone,[1]; 120 min post injection,25.2 ± 3.89 % dose/g
same,Biodistribution: Brain,[1]; 120 min post injection,0.04 ± 0.00 % dose/g
same,Biodistribution: Heart,[1]; 120 min post injection,0.04 ± 0.00 % dose/g
same,Biodistribution: Kidney,[1]; 120 min post injection,0.57 ± 0.43 % dose/g
same,Biodistribution: Liver,[1]; 120 min post injection,0.03 ± 0.01 % dose/g
same,Biodistribution: Lung,[1]; 120 min post injection,0.04 ± 0.01 % dose/g
same,Biodistribution: Muscle,[1]; 120 min post injection,0.04 ± 0.04 % dose/g
same,Biodistribution: Pancreas,[1]; 120 min post injection,0.02 ± 0.00 % dose/g
same,Biodistribution: Skin,[1]; 120 min post injection,0.03 ± 0.00 % dose/g
same,Biodistribution: Spleen,[1]; 120 min post injection,0.03 ± 0.01 % dose/g
same,Hydroxyapatite Binding (%),[2],78.4 ± 3.9%
same,Micro-PET localization (in words),[3],localized in the spines of mice
